The text below walks through data of patent US6596878B2, “Methods and compositions for inhibiting cell proliferative disorders” (Yissum Research & Development Company of the Hebrew …, priority 1994, dated 2003).

One assay has as its target T1, PDGFR-β (Homo sapiens, UniProt P09619).
T1 construct: the human glioblastoma line U1242 that expresses PDGFR-β; endogenous in cells; host or cells: U1242 human glioblastoma cells
The assay is described as follows: PDGFR-β cellular kinase assay (U1242 cells). The class given is cell-based. Particulars: Table V, read-out: Estimated IC50 Cellular Kinase Assays PDGFR-β. The text has this: (§1) This example illustrates the ability of the exemplary compounds to inhibit receptor tyrosine kinases, such as HER2 and/or EGFR. The following target cells were used for cellular kinaseassays: NIH3T3 clone C7 (Honegger et al., supra) engineered to over-express human EGF receptor; NIH3T3 cells engineered to over-express a chimeric receptor containing the EGFR extracellular domain and the HER2 intracellular kinase domain; the human mammary carcinoma line BT474 (ATCC HTB2) expressing HER2; and the human glioblastoma line U1242 that expresses PDGFR-β. Growth assays were carried out using human mammary epithelial SKBR3 (ATCC HTB30) cells, SKOV3 (ATCC HTB77) human ovarian cancer cell line, A431 cells, MCF7 human breast carcinoma cells, MCF7 cells overexpress the HER2 kinase (MCF7-HER2), NIH3T3 cells, and NIH3T3 cells overexpressing the HER2 kinase (3T3-HER2).

The next assay deals with SKBR3 cells. The experiment in a line: SKBR3 growth assay (sulphorhodamine B). In kind it is cell-based. Particulars: Homo sapiens, SK-BR-3, 96 h; Table V; 4 days, SRB; read-out: Estimated IC50 Growth Assays SKBR3 cells.
Text: as §1
SKBR3 cells over-express HER2. A431 cells over-express EGFR. These cells were dispensed into 96-well plates with test compounds. After 4 days the monolayers were TCA-fixed then stained with sulphorhodamine B. The absorbance versus log drug concentration was plotted and IC50 values estimated.
(4) Tris, crystallized free base—Fisher Catalog #BP152 Working solution: 10 mM tris=1.211 gram Trizma base/liter H2O.
(5) Aspirate growth media from 96 well plate containing control cells or cell treated with compounds, rinse wells 2 or 3 times with PBS and layer 200 μl cold 10% TCA onto each well. Fix cells for 60 minutes at 4° C.
(6) Discard TCA and rinse wells 5 times with distilled H2O. Dry plate upside down on paper towel.
(7) Stain fixed cells for 10 minutes with 100 μl 0.4% SRB per well.
(8) Pour off SRB solution and rinse wells 5 times with 1% acetic acid.
(9) Dry plate upside down on paper towel.
(10) After wells are completely dry, solubilize dye with 100 μl 10 mM Tris base per well for 5-10 minutes on titer plate shaker.
(11) Read optical density at dual wavelength mode 570 nm and 630 nm on Dynatech ELISA plate reader, Model MR 5000.

T1 sequence (P09619 33-1106): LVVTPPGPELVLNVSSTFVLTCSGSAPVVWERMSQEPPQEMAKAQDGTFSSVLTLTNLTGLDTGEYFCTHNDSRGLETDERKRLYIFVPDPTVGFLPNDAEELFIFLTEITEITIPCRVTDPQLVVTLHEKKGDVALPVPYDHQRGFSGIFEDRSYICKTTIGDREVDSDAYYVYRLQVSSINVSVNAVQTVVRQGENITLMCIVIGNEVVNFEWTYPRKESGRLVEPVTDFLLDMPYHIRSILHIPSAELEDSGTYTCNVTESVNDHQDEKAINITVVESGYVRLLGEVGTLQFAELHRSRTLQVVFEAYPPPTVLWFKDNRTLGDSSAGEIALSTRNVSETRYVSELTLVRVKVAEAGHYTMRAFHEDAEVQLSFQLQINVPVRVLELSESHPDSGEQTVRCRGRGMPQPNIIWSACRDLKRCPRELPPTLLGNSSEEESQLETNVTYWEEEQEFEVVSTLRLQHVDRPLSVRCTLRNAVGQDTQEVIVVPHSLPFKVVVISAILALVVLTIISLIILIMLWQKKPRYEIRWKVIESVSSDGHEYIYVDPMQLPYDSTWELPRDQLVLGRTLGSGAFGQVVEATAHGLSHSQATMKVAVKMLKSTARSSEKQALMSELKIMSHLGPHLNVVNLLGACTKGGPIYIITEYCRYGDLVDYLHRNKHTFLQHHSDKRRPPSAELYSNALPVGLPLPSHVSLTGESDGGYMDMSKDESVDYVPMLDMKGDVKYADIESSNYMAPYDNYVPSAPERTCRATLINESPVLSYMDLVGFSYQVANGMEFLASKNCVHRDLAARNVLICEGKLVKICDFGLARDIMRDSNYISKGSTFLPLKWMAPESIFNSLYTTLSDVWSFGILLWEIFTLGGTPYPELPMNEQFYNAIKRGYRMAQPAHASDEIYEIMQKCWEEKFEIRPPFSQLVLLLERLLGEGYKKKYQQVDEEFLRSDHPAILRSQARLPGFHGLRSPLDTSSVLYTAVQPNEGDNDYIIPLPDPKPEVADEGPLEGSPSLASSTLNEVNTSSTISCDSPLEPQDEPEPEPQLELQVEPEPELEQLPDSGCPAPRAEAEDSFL

As for `CC(C)(C)c1cc(/C=C(\C#N)C(N)=S)cc(C(C)(C)C)c1O` [Compound M11], the IC50 at PDGFR-β is greater than 100 µM; in the assay with SKBR3 cells, 4 µM. The corresponding values for `N#C/C(=C\c1ccc(O)c(O)c1)C(=S)NCc1ccccc1` [Compound M13] are 60 µM and 25 µM. With `N#C/C(=C\c1ccc(O)c(O)c1)C(=O)Nc1cccc(C(F)(F)F)c1` [Compound M15], the IC50 in the assay on SKBR3 cells was 20 µM. `N#C/C(=C\c1cc(O)c(O)c(I)c1)C(=O)NCCCc1ccccc1` [Compound M16]: the IC50 on PDGFR-β is 35 µM; with SKBR3 cells, 9 µM.
